Test results taken from US5234944A (priority 1986, dated 1993).
Read-outs that look alike come from different tables or passages of the source.

Tests used:
opiated receptor K = target: T1, opiated receptor K (Cavia porcellus, UniProt P41144); test: Liaison with the opiated receptor K in vitro (displacement of 3H ethylketocyclazocine); format: binding; conditions: guinea-pig cerebella membranes, 3H ethylketocyclazocine 1 nM, Tris pH 7.7, 25° C., 40 minutes
T1 construct: Membrane residue prepared from the cerebella of guinea-pigs; from tissue; host or cells: guinea-pig cerebellum membranes

[1] = Hypotensive activity on the anaesthetized rat; format: in vivo, rat (Sprague Dawley); conditions: injected into jugular vein
[2] = format: in vivo, rat; conditions: intravenous, aconitine 5 minutes after
[3] = Measurement of the diuretic activity; format: in vivo, rat (Sprague Dawley); conditions: oral, t1h-t5h
Method: 4) Measurement of the diuretic activity
Male rats of Sprague Dawley strain weighing 180 to 200 g were not fed for 17 hours before the test, but received water ad libitum. Groups of 8 animals were set up for each dose tested and the rats received the product under test or its vehicle orally. The urinary volume was measured every hour for the 5 hours following the administration of the product. At the end of this period, the urines were collected and the activity of the product was expressed as a percentage of variation calculated on the urinary volume corresponding to the period t1h -t5h.

[4] = read-out: 50% inhibiting concentration (IC50)
[5] = 50% inhibiting concentration (IC50)

T1 sequence (P41144 whole entry): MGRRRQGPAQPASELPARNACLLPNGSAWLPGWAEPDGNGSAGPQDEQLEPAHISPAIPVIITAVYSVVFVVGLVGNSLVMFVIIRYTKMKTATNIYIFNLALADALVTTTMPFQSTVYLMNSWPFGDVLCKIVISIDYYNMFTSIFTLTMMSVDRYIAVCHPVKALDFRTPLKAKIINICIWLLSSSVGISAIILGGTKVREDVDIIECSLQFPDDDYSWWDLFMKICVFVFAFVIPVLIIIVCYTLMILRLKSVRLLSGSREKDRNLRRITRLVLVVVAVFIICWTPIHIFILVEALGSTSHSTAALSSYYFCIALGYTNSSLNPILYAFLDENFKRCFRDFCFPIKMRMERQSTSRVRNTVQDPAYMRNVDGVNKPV

Compound | variation of arterial pressure, 5 min. after administration ([1]; dose 1 mg/kg) [%] | variation of arterial pressure, 30 min. after administration ([1]; dose 1 mg/kg) [%] | IC50 (opiated receptor K; [5]) [nM] | further results
CC(C(=O)N(C)[C@@H]1c2ccccc2C[C@H]1N1CCCC1)c1ccc(Cl)c(Cl)c1 (mixture of isomers) [Example 22, [Trans (±)]3,4-dichloro-N-[2,3-dihydro-2-(1-pyrrolidinyl)-1H-inden-1-yl]-N-α-dimethyl-benzene-acetamide] |  |  |  | IC50 (opiated receptor K; [4]): 7.1 nM
CN(C(=O)Cc1ccc(Cl)c(Cl)c1)[C@H]1[C@H](N2CCCC2)c2ccccc2C12CCOCC2 (relative stereo) [Example 4, [trans (±)]3,4-dichloro-N-[2,2',3,3',5',6'-hexahydro-3-(1-pyrrolidinyl)-spiro (1H-inden-1-,4'-(4H)-pyran]-2-yl]-N-methyl-benzene-acetamide] |  |  |  | variation of arterial pressure, 5 min. after administration ([1]; dose 10 mg/kg): -26%; variation of arterial pressure, 30 min. after administration ([1]; dose 10 mg/kg): -14%
CN(C(=O)Cc1ccc(C(F)(F)F)cc1)[C@@H]1c2ccccc2C[C@H]1N1CCCC1 (relative stereo) [Example 5, [Trans (±)]N-[2,3-dihydro-2-(1-pyrrolidinyl)-1H-inden-1-yl]-N-methyl 4-(trifluoromethyl)-benzene-acetamide] | -20 | -20 | 3 | variation of arterial pressure, 5 min. after administration ([1]; dose 10 mg/kg): -25%; variation of arterial pressure, 30 min. after administration ([1]; dose 10 mg/kg): -10%; percentage of extension of time of appearance of disturbances of the cardiac rhythm ([2]; dose 10 mg/kg): +15.6%
CN(C(=O)Cc1cccc(C(F)(F)F)c1)[C@@H]1c2ccccc2C[C@H]1N1CCCC1 (relative stereo) [Example 6, [Trans (±)]N-[2,3-dihydro-2-(1-pyrrolidinyl)-1H-inden-1-yl]-N-methyl-3-(trifluoromethyl)-benzene-acetamide] |  |  | 7.5 | 
CN(C(=O)Cc1ccc([N+](=O)[O-])cc1)[C@@H]1c2ccccc2C[C@H]1N1CCCC1 (relative stereo) [Example 8, [Trans (±)]N-[2,3-dihydro-2-(1-pyrrolidinyl)-1H-inden-1-yl]-N-methyl-4-nitro-benzene-acetamide] | -25 | -27 | 7.1 | percentage of variation of the urinary volume ([3]; dose 2.5 mg/kg): +124%; percentage of variation of the urinary volume ([3]; dose 5 mg/kg): +130%; percentage of extension of time of appearance of disturbances of the cardiac rhythm ([2]; dose 5 mg/kg): +23%
CN(C(=O)COc1ccc(Cl)c(Cl)c1)[C@@H]1c2ccccc2C[C@H]1N1CCCC1 (relative stereo) [Example 14, [trans (±)]2-(3,4-dichlorophenoxy)-N-[2,3-dihydro-2-(1-pyrrolidinyl)-1H-inden-1-yl]-N-methyl-acetamide] | -22 | -26 |  | percentage of variation of the urinary volume ([3]; dose 5 mg/kg): +68%; IC50 (opiated receptor K; [4]): 3.8 nM
CN(C(=O)Cc1ccc([N+](=O)[O-])cc1)[C@@H]1c2ccccc2C[C@H]1N1CCCC1 (relative stereo) [Example 16, [Trans (±)]N-[2,3-dihydro-2-(1-pyrrolidinyl)-1H-inden-1-yl]-N-methyl-4-nitro-benzene-acetamide (isomer A)] |  |  | 5 | 
CN(C)[C@@H]1Cc2ccccc2[C@H]1N(C)C(=O)Cc1ccc(Cl)c(Cl)c1 (relative stereo) [Example 25, [Trans (±)]3,4-dichloro-N-[2,3-dihydro-2-(dimethylamino)-1H-inden-1-yl]-N-methyl-benzene-acetamide] |  |  | 2.2 | 
CN(C(=O)Cc1ccc(Cl)c(Cl)c1)[C@H]1[C@H](N2CCCC2)c2ccccc2C1(C)C (relative stereo) [Example 29, [Trans (±)]3,4-dichloro-N-[2,3-dihydro-1,1-dimethyl-3-(1-pyrrolidinyl)-1H-inden-2-yl]-N-methyl-benzene-acetamide] |  |  | 5.6 | 
